Results on 3 compounds are retold here after US10765748B2, “Composition and methods for tethering bioactive peptides to metal oxide surfaces” (University of Akron, priority 2014, dated 2020).

“Also recorded” adds a separate entry of the source. Peptide text beside a SMILES is read from it. * marks the point of attachment. X1 = O=C(CCc1ccc(O)c(O)c1)NCCCC[C@H](NC(=O)CCc1ccc(O)c(O)c1)C(=O)*; FITC = O=C1OC2(c3ccc(O)cc3Oc3cc(O)ccc32)c2ccc(NC(=S)*)cc21; Dihydrocaffeoyl = O=C(CCc1ccc(O)c(O)c1)*

Data set [1] in a line: Fluorescence intensity of FITC-labeled OGP-Cat immobilized on TiO2. The format is physicochemical. The note with it: 3 days in 25 mM HEPES buffer pH 7.4. The procedure:
Fluorescein-labeled modular peptide (FITC-labeled OGP-Cat) was also synthesized to visualize the presence of the immobilized peptides on TiO2 surface using fluorescence microscopy. (See, Example 13). After immobilization of FITC-labeled OGP-Cat onto TiO2 surfaces, the fluorescence intensity was much stronger compared to the control sample, which incubating TiO2-coated substrates in a solution of FITC at identical concentration. […] See, FIGS. 10A-B.
To study the stability of sequestered modular peptides on targeting surfaces, the modular peptide immobilized TiO2 substrates were immersed in 25 mM HEPES buffer (pH=7.4 at 25° C.) and incubated for different durations. The mean intensity of FITC-labeled OGP-Cat immobilized TiO2 substrates after incubation was quantified to detect the diffusion of FITC-labeled OGP-Cat into surrounding solution. (See FIG. 11). […] It is believed that the mismatch of retention time for the monovalent ligands may be attributed to the sensitivity difference of XPS and fluorescence microscopy. […]
The florescence intensity of FITC-OGP-(Cat)n (n=1, 2, and 4) on TiO2, Fe2O3, Fe3O4, ZrO2, CeO2, SiO2, and Au substrates was viewed with an inverted IX81 Microscope (Olympus, Center Valley, Pa.) with mercury bulb excitation and the appropriate filters. […] The mean intensity was calculated based on at least 10 randomly chosen sites observed under the same conditions.

The nature of data set [2]: Live/Dead viability assay. It counts as cell-based. To be noted: mouse; immobilized on TiO2 substrates, cultured 24 hours. The procedure: The toxicity of the dendron of the embodiments of the present invention was tested using mouse calvarial pre-osteoblast cells ([…]) cells. The MC3T3-E1 cells were seeded on the TiO2 substrates with immobilized FITC-labeled OGP-Cat and cultured for 24 hours. […] The cells were well spread on the peptide-bearing surfaces, which is a consistent with an adherent proliferating cell population. See also, Example 17.
MC3T3-E1 mouse preosteoblast (passage 17) were expanded and cultured in α-MEM media (Gibco, Life Technologies, Grand Island, N.Y.) supplemented with 10% fetal bovine serum (FBS) (Invitrogen), 100 units/mL penicillin (Invitrogen), and 100 μg/mL streptomycin (Invitrogen) at 37° C. in a 5% CO2 humidified atmosphere. The cells were subcultured every 3 days in the presence of 0.25% (w/v) trypsin and 0.5% (w/v) ethylenediaminetetraacetic acid tetrasodium salt (EDTA) solution. […]
Viability of the cell culture of Example 16 above was evaluated using a Live/Dead viability/cytotoxicity kit (Invitrogen, UK). […] The staining solution was removed and the samples were viewed under the IX81 fluorescence microscope (Olympus) with 494 nm (green, Calcein) and 528 nm (red, EthD-1) emission filters. For quantitative analysis a total of 250 cells were counted from each sample over 25 randomly chosen areas and the viable and non-viable cells counts were recorded.

A short description of data set [3]: QCM-d adsorption of OGP-(Cat)4 to hydroxyapatite. It counts as binding. To be noted: c=10 μM. As for the experimental part: (§1) The adsorption of tetravalent binding ligand OGP-(Cat)4 to a wide range of materials was tested to identify common features of materials to which the catechol-bearing ligands of various embodiments of the present invention strongly bind. […] While not wanting to be bound by theory, it is believed that this is because the coordination bond between catechol and metals with empty d-orbitals or f-orbitals provides a stronger interaction than Hydrogen bonding. […] Therefore, it is believed that OGP-(Cat)4 will be highly useful for the functionalization of transition metal oxides.

The nature of data set [4]: QCM-d adsorption of OGP-(Cat)4 to gold. The format is binding. As for the experimental part: as §1
(§2) Quartz crystal microbalance with dissipation (QCM-d) was used to determine the binding isotherm for OGP-(Cat)4 on TiO2, Fe2O3, Fe3O4, ZrO2, CeO2, SiO2, and Au substrates. The AT cut sensors were purchased from Biolin Scientific AB (Sweden) and cleaned before use according to the protocol provided by the company. The sensor was excited at 5 MHz as its fundamental frequency. The frequency shift (Δf) and dissipation (ΔD) were measured at 3rd, 5th, 7th, 9th, 11th and 13th overtones. 25 mM HEPES buffer (pH=7.40 at 25° C.) was used as the flow medium. Sensors were mounted in the modules immediately after cleaning. […] Then solutions of catechol-bearing peptide (OGP-(Cat)4) in HEPES buffer were introduced and the flow continued until the adsorption reached its equilibrium state. […]

Data set [5] in a line: QCM-d adsorption of OGP-(Cat)4 to ZrO2. The note with it: c=1 μM. It counts as binding. The procedure: as §1, §2
Data set [6] in a line: QCM-d adsorption of catechol-functionalized dendrons to TiO2 surface. It counts as binding. The note with it: for concentration to obtain ~6 Hz frequency shift: TiO2, 25° C., pH 7.4; for apparent disassociation constant Kd: 25° C., pH 7.4, single-site specific binding model; for maximum adsorption (Bmax): single-site specific binding model. The procedure: The adsorption processes of all molecules to TiO2 surfaces at 25° C. and pH 7.4 were monitored by quartz crystal microbalance with dissipation (QCM-d). (See Example 7). Multivalent binding effects that enhanced the binding affinity were clear. In FIG. 2, to obtain a similar level of adsorption, ˜6 Hz frequency shift, the concentration of monovalent ligand, OGP-Cat, was 13 μM, while that of tetravalent ligand, OGP-(Cat)4 and OGP-PEG-(Cat)4, was 0.32 and 0.16 μM, respectively due to the mass differences. A much smaller amount of sample (˜80-fold less) was needed for the tetravalent ligand OGP-PEG-(Cat)4 compared with the monovalent ligand OGP-Cat to achieve the same level (mass) of surface adsorption. […] Under similar conditions, the monovalent ligand was partially washed away. The adsorption kinetics were recorded by QCM-d, with regard to OGP-PEG-(Cat)4, and 2 hours were needed to reach the equilibrium state at a concentration of 0.16 μM.
To quantitatively compare the binding affinities of the multivalent binding ligands, their adsorption properties at several different concentrations were measured. The solutions at higher concentrations were switched to flow above the sensor, until the adsorption of previous solution at lower concentration reached the equilibrium state (the change in frequency shift is smaller than the signal fluctuation, 0.05 Hz/min), taking OGP-Cat as an example shown in FIG. 3A. In these experiments, the adsorption of OGP-Cat onto TiO2 surface at different concentrations was measured by QCM-d, while the concentration was increased sequentially (c1=0.068 μmol/L, c2=0.34 μmol/L, c3=1.8 μmol/L, c4=7.3 μmol/L, c5=13 μmol/L, and c6=34 μmol/L). At last the adsorbed layer was washed with 25 mM HEPES buffer. The flow rate was 0.150 mL/min. Three independent measurements (Sensors 1-3) are shown on FIG. 3A. The corresponding frequency shift was calculated using Sauerbrey Equation to get the adsorbed area mass. The adsorption isotherm of each molecule was drawn and fit with a single-site specific binding model to get the apparent disassociation constant (Kd) and maximum adsorption (Bmax) of OGP-Cat as in FIG. 3B and others in FIGS. 4A-F from the adsorbed area mass at the respective concentrations.
Quartz crystal microbalance with dissipation (QCM-d) was used to determine the binding isotherm for OGP-(Cat)4 on TiO2, Fe2O3, Fe3O4, ZrO2, CeO2, SiO2, and Au substrates. The AT cut sensors were purchased from Biolin Scientific AB (Sweden) and cleaned before use according to the protocol provided by the company. The sensor was excited at 5 MHz as its fundamental frequency. The frequency shift (Δf) and dissipation (ΔD) were measured at 3rd, 5th, 7th, 9th, 11th and 13th overtones. 25 mM HEPES buffer (pH=7.40 at 25° C.) was used as the flow medium. Sensors were mounted in the modules immediately after cleaning. […] Then solutions of catechol-bearing peptide (OGP-(Cat)4) in HEPES buffer were introduced and the flow continued until the adsorption reached its equilibrium state. If necessary, solutions at higher concentrations were introduced sequentially. Lastly, HEPES buffer was introduced again to wash the adsorbed layer. Three independent measurements were done simultaneously. The results are reported on FIG. 5.
The QCM-d measurements in Example 7 above may be used to calculate the adsorbed area mass. The adsorbed area mass was proportional to the frequency shift (Δf) and calculated by the Sauerbrey Equation. Sauerbrey Equation is
[formula] where C is the mass sensitivity constant with the value of 17.7 ng Hz^−1 cm^−2 for 5 MHz fundamental frequency crystal, n is the frequency overtone number, and n=7 was chosen to calculate the adsorption area mass. As long as the adsorbed mass is small compared to the crystal, sufficiently thin, and has limited viscoelastic coupling with the surrounding medium (ΔD<1×10^−6 per 10 Hz), this relationship is valid. […]

Data set [7] is described as follows: QCM-d adsorption of OGP-(Cat)4 to SiO2. The format is binding. The procedure:
as §1, §2

A short description of data set [8]: QCM-d adsorption of OGP-(Cat)4 to Al2O3. To be noted: c=10 μM. The format is binding. The procedure: as §1
Data set [9] in a line: QCM-d adsorption of OGP-(Cat)4 to iron oxide. It counts as binding. The note with it: c=1 μM. As for the experimental part:
as §1, §2

Data set [10] can be described thus: QCM-d adsorption of OGP-(Cat)4 to CeO2. It counts as binding. The note with it: c=1 μM. As for the experimental part:
as §1, §2

A short description of data set [11]: XPS of immobilized modular peptides on TiO2 substrates and retention in HEPES buffer. To be noted: HEPES buffer pH 7.4. The format is physicochemical. The procedure: Immobilization of peptides onto TiO2 surface was accomplished by immersing the TiO2 substrates into the corresponding modular peptide solution and incubating it overnight at ambient temperature. The successful immobilization of OGP-Cat and OGP-(Cat)4 onto TiO2-coated substrates were confirmed by XPS. Nitrogen is the element contained only in the modular peptides while not in bare TiO2, as shown in the XPS survey scan of bare TiO2 and OGP-(Cat)4 in FIG. 9A. […] It is noted that the N1s peaks in FIG. 9B are normalized to the highest intensity (O1s) for comparison of the signal to noise ratio.
To quantify the increase in nitrogen due to adsorption of OGP-Cat and OGP-(Cat)4, the nitrogen content (N1s) was normalized with Ti content (Ti2p), and compared with TiO2 substrate after incubation in HEPES buffer overnight (TiO2 as control), as show in Table 2, below.
To study the stability of sequestered modular peptides on targeting surfaces, the modular peptide immobilized TiO2 substrates were immersed in 25 mM HEPES buffer (pH=7.4 at 25° C.) and incubated for different durations. The mean intensity of FITC-labeled OGP-Cat immobilized TiO2 substrates after incubation was quantified to detect the diffusion of FITC-labeled OGP-Cat into surrounding solution. (See FIG. 11). […]

With `O=C(O)CNC(=O)CNC(=O)[C@H](Cc1ccccc1)NC(=O)CNC(=O)[C@H](Cc1ccc(O)cc1)NC(=O)[C@H](CCCCNC(=S)Nc1ccc2c(c1)C(=O)OC21c2ccc(O)cc2Oc2cc(O)ccc21)NC(=O)CCc1ccc(O)c(O)c1` [FITC-labeled OGP-Cat] (Dihydrocaffeoyl-K(FITC)YGFGG-OH), in data set [1], the “mean fluorescence intensity after incubation” value was “deceased by about a half”. The viability at 24 h in [2] was more than 98%.
Consider `O=C(O)CNC(=O)CNC(=O)[C@H](Cc1ccccc1)NC(=O)CNC(=O)[C@H](Cc1ccc(O)cc1)NC(=O)[C@H](CCCCNC(=O)[C@H](CCCCNC(=O)CCc1ccc(O)c(O)c1)NC(=O)CCc1ccc(O)c(O)c1)NC(=O)[C@H](CCCCNC(=O)CCc1ccc(O)c(O)c1)NC(=O)CCc1ccc(O)c(O)c1` [OGP-(Cat)4] (Dihydrocaffeoyl-K(Dihydrocaffeoyl)K(X1)YGFGG-OH), for which the “adsorption to hydroxyapatite (HA)” value in data set [3] is “weakly adsorbed; also recorded: Limited adsorption”. Further, the “adsorption to gold” value in data set [4] (c=1 μM) is “some adsorption”. In data set [4] (c=10 μM), the “adsorption to Au” value was “relatively strongly adsorbed”. Besides, the “binding to ZrO2” value in data set [5] is reported as “strongest binding”. Also, in [6], the “concentration to obtain ~6 Hz frequency shift” value was 0.32 µM. Also, in data set [6] (TiO2 surface), binding was put at a Kd of 0.031 ± 0.003 µM, the “apparent disassociation constant Kd” value amounted to 0.031 ± 0.003 µM and the “maximum adsorption (Bmax)” value is on record as 160 ± 6 ng/cm^2. Also, the “binding to TiO2” value in data set [6] (c=1 μM) is given as “strongest binding”. In addition, in data set [6] (multivalent vs monovalent ligand within set with or without PEG linkage), the “enhancement parameter β = Ka,multi/Ka,mono” value is reported as 184. The “coverage of binding sites / maximum adsorption on TiO2” value in [6] (solution at 100×Kd (2.8 μM) or Kd (28 nmol/L)) is reported as 99%. Moreover, the “adsorption to SiO2” value in data set [7] (c=1 μM) was “weak adsorption”. Further, the “adsorption to SiO2” value in data set [7] (c=10 μM) is on record as “weakly adsorbed; also recorded: Limited adsorption”. For the same compound, the “adsorption to Al2O3” value in data set [8] is on record as “weakly adsorbed; also recorded: Limited adsorption”. Moreover, the “binding to iron oxide” value in data set [9] was “strong binding”. Also, the “binding to CeO2” value in data set [10] is “strongest binding”. For the same compound, the “incubation time after which decrease of N1s signal was detected” value in data set [11] turned out to be 14 days.
Turning to `NCCCC[C@H](NC(=O)CCc1ccc(O)c(O)c1)C(=O)N[C@@H](Cc1ccc(O)cc1)C(=O)NCC(=O)N[C@@H](Cc1ccccc1)C(=O)NCC(=O)NCC(=O)O` [OGP-Cat] (Dihydrocaffeoyl-KYGFGG-OH), the “concentration to obtain ~6 Hz frequency shift” value in data set [6] was 13 µM. In data set [6] (TiO2 surface), the “apparent disassociation constant Kd” value worked out at 5.7 ± 0.2 µM and the “maximum adsorption (Bmax)” value came out at 54 ± 4 ng/cm^2. In addition, the “incubation time after which decrease of N1s signal was detected” value in [11] is 0.5 days.
